Data on four compounds can be found in patent publication US10603322B2, “Therapeutic targeting of casein kinase 1δ in breast cancer” (The Scripps Research Institute, priority 2015, dated 2020).

One test relates to MDA-MB-231 TNBC cells. The test is described as follows: Cell proliferation / growth assay. It is filed as cell-based, human.
The next test has as its system cancer cells. Conditions: cited from earlier work.
Another test concerns BCM-4013 PDX tumors. The settings on record: mouse, in vivo; cited from earlier work.

With `CC(C)(C)c1cc(NC(=O)Nc2ccc(-c3cn4c(n3)sc3cc(OCCN5CCOCC5)ccc34)cc2)no1` [AC220, reference compound], the anti-proliferative activity result in the test on MDA-MB-231 TNBC cells is “insensitive”.

As to `COc1cc(OC)c(C=C2C(O)=Nc3ccccc32)c(OC)c1` [IC261], the mode of action result with cancer cells (not by inhibition of CK1δ/CK1ε) is on record as “blocking tubulin function”.

`Nc1nccc(-c2c(-c3ccc(F)cc3)ncn2C2CCCCC2)n1` [PF670462]: the anti-cancer activity entry in the test on cancer cells is given as “lacks anti-cancer activity”.

Consider `CC(=O)O[C@@]12CO[C@@H]1C[C@H](O)[C@@]1(C)C(=O)[C@H](O)C3=C(C)[C@@H](OC(=O)[C@H](O)[C@@H](NC(=O)OC(C)(C)C)c4ccccc4)C[C@@](O)([C@@H](OC(=O)c4ccccc4)[C@H]21)C3(C)C` [docetaxel], for which the “response of the BCM-4013 model to treatment” value with BCM-4013 PDX tumors is listed as “limited response”.
